According to PubChem BioAssay (NCI):
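Compound exposure: 48 hours, 5 concentrations, 96-well plates. At the GI50, growth is halved. TGI denotes the concentration required for complete inhibition of growth.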

How the values were obtained:
Assay in all cases: NCI tumour cell line growth inhibition, 48 h; in the data active = GI50 below about 0.43 µM; inactive = the rest
RPMI-8226 leukemia = system: RPMI-8226 leukemia
BT-549 breast = system: BT-549 breast
ACHN renal = system: ACHN renal
HOP-92 NSCLC = system: HOP-92 NSCLC
HL-60(TB) leukemia = system: HL-60(TB) leukemia
OVCAR-3 ovarian = system: OVCAR-3 ovarian
NCI/ADR-RES ovarian = system: NCI/ADR-RES ovarian
CAKI-1 renal = system: CAKI-1 renal
SK-MEL-28 melanoma = system: SK-MEL-28 melanoma
A549 NSCLC = system: A549 NSCLC
SK-MEL-2 melanoma = system: SK-MEL-2 melanoma
MCF7 breast = system: MCF7 breast
OVCAR-5 ovarian = system: OVCAR-5 ovarian
SK-OV-3 ovarian = system: SK-OV-3 ovarian
DU-145 prostate = system: DU-145 prostate
OVCAR-8 ovarian = system: OVCAR-8 ovarian
NCI-H23 lung = system: NCI-H23 lung
UACC-257 melanoma = system: UACC-257 melanoma
HCT-116 colon = system: HCT-116 colon
COLO 205 colon = system: COLO 205 colon
SNB-19 CNS = system: SNB-19 CNS
M14 melanoma = system: M14 melanoma
T-47D breast = system: T-47D breast
HT29 colon = system: HT29 colon
UACC-62 melanoma = system: UACC-62 melanoma
HCT-15 colon = system: HCT-15 colon
K-562 leukemia = system: K-562 leukemia
TK-10 renal = system: TK-10 renal
HS 578T breast = system: HS 578T breast
SF-539 CNS = system: SF-539 CNS
EKVX NSCLC = system: EKVX NSCLC
UO-31 renal = system: UO-31 renal
RXF 393 renal = system: RXF 393 renal
HCC-2998 colon = system: HCC-2998 colon
SNB-75 CNS = system: SNB-75 CNS
SN12C renal = system: SN12C renal
CCRF-CEM leukemia = system: CCRF-CEM leukemia
MALME-3M melanoma = system: MALME-3M melanoma
HOP-62 NSCLC = system: HOP-62 NSCLC
LOX IMVI melanoma = system: LOX IMVI melanoma
MDA-MB-435 = system: MDA-MB-435
OVCAR-4 ovarian = system: OVCAR-4 ovarian
SK-MEL-5 melanoma = system: SK-MEL-5 melanoma
786-0 renal = system: 786-0 renal
SF-295 CNS = system: SF-295 CNS
SW-620 colon = system: SW-620 colon
A498 renal = system: A498 renal
SF-268 CNS = system: SF-268 CNS
MDA-MB-231 breast = system: MDA-MB-231 breast
U251 CNS = system: U251 CNS
MOLT-4 leukemia = system: MOLT-4 leukemia
NCI-H460 lung = system: NCI-H460 lung
NCI-H226 lung = system: NCI-H226 lung
NCI-H522 lung = system: NCI-H522 lung
PC-3 prostate = system: PC-3 prostate
IGROV1 ovarian = system: IGROV1 ovarian
KM12 colon = system: KM12 colon

O=C(Oc1ccccc1)c1cc(O)c(O)c(O)c1
34 µM: TGI (M14 melanoma)
inactive: GI50 (RPMI-8226 leukemia) 11.4 µM | GI50 (BT-549 breast) 15.6 µM | GI50 (ACHN renal) 9.72 µM | GI50 (HOP-92 NSCLC) 8.75 µM | GI50 (HL-60(TB) leukemia) 1.43 µM | GI50 (OVCAR-3 ovarian) 4.34 µM | GI50 (NCI/ADR-RES ovarian) 11.4 µM | GI50 (CAKI-1 renal) 15.4 µM | GI50 (SK-MEL-28 melanoma) 19.2 µM | GI50 (A549 NSCLC) 9.64 µM | GI50 (SK-MEL-2 melanoma) 35.9 µM | GI50 (MCF7 breast) 24.7 µM | GI50 (OVCAR-5 ovarian) 25.2 µM | GI50 (SK-OV-3 ovarian) 9.22 µM | GI50 (DU-145 prostate) 15.7 µM | GI50 (OVCAR-8 ovarian) 9.82 µM | GI50 (NCI-H23 lung) 11.7 µM | GI50 (UACC-257 melanoma) 35.8 µM | GI50 (HCT-116 colon) 11.7 µM | GI50 (COLO 205 colon) 18.9 µM | GI50 (SNB-19 CNS) 13.8 µM | GI50 (M14 melanoma) 11.9 µM | GI50 (T-47D breast) 18.1 µM | GI50 (HT29 colon) 30 µM | GI50 (UACC-62 melanoma) 8.45 µM | GI50 (HCT-15 colon) 5.98 µM | GI50 (K-562 leukemia) 5.78 µM | GI50 (TK-10 renal) 29.1 µM | GI50 (HS 578T breast) 4.67 µM | GI50 (SF-539 CNS) 5.65 µM | GI50 (EKVX NSCLC) 8.95 µM | GI50 (UO-31 renal) 2.93 µM | GI50 (RXF 393 renal) 25.6 µM | GI50 (HCC-2998 colon) 13.5 µM | GI50 (SNB-75 CNS) 7.41 µM | GI50 (SN12C renal) 9.73 µM | GI50 (CCRF-CEM leukemia) 1.28 µM | GI50 (MALME-3M melanoma) 21.8 µM | GI50 (HOP-62 NSCLC) 5.13 µM | GI50 (LOX IMVI melanoma) 8.97 µM | GI50 (MDA-MB-435) 13.1 µM | GI50 (OVCAR-4 ovarian) 14 µM | GI50 (SK-MEL-5 melanoma) 11.4 µM | GI50 (786-0 renal) 11.2 µM | GI50 (SF-295 CNS) 17.9 µM | GI50 (SW-620 colon) 14.3 µM | GI50 (A498 renal) 5 µM | GI50 (SF-268 CNS) 8.15 µM | GI50 (MDA-MB-231 breast) 26.2 µM | GI50 (U251 CNS) 10.7 µM | GI50 (MOLT-4 leukemia) 2.23 µM | GI50 (NCI-H460 lung) 4.54 µM | GI50 (NCI-H226 lung) 12.9 µM | GI50 (NCI-H522 lung) 4.1 µM | GI50 (PC-3 prostate) 13.7 µM | GI50 (IGROV1 ovarian) 11.6 µM | GI50 (KM12 colon) 11.5 µM
83.7 µM: TGI (SF-295 CNS)
44.3 µM: TGI (HCC-2998 colon)
7.12 µM: TGI (HL-60(TB) leukemia)
36.3 µM: TGI (SF-539 CNS)
42.5 µM: TGI (NCI-H522 lung)
> 100 µM: TGI (RPMI-8226 leukemia) | TGI (ACHN renal) | TGI (CAKI-1 renal) | TGI (SK-MEL-28 melanoma) | TGI (A549 NSCLC) | TGI (SK-MEL-2 melanoma) | TGI (MCF7 breast) | TGI (OVCAR-5 ovarian) | TGI (SK-OV-3 ovarian) | TGI (DU-145 prostate) | TGI (OVCAR-8 ovarian) | TGI (UACC-257 melanoma) | TGI (HCT-116 colon) | TGI (COLO 205 colon) | TGI (SNB-19 CNS) | TGI (T-47D breast) | TGI (HT29 colon) | TGI (HCT-15 colon) | TGI (TK-10 renal) | TGI (HS 578T breast) | TGI (EKVX NSCLC) | TGI (UO-31 renal) | TGI (RXF 393 renal) | TGI (SNB-75 CNS) | TGI (SN12C renal) | TGI (CCRF-CEM leukemia) | TGI (MALME-3M melanoma) | TGI (LOX IMVI melanoma) | TGI (MDA-MB-435) | TGI (OVCAR-4 ovarian) | TGI (SW-620 colon) | TGI (SF-268 CNS) | TGI (MDA-MB-231 breast) | TGI (U251 CNS) | TGI (NCI-H460 lung) | TGI (NCI-H226 lung) | TGI (PC-3 prostate) | TGI (IGROV1 ovarian) | TGI (KM12 colon)
50 µM: TGI (786-0 renal)
59.2 µM: TGI (NCI-H23 lung)
76.1 µM: TGI (A498 renal)
70.9 µM: TGI (K-562 leukemia)
56.7 µM: TGI (NCI/ADR-RES ovarian)
81.4 µM: TGI (HOP-92 NSCLC)
47.3 µM: TGI (OVCAR-3 ovarian)
56.4 µM: TGI (UACC-62 melanoma)
38.8 µM: TGI (SK-MEL-5 melanoma)
26.2 µM: TGI (MOLT-4 leukemia)
83.2 µM: TGI (BT-549 breast)
70.3 µM: TGI (HOP-62 NSCLC)
